Reference: patent US4593093A, “Acyl derivatives” (priority 1980, dated 1986)
Counter-ions that a name gives are not always drawn. Like-named read-outs stand apart in the source and are kept apart here.

Assays:
[1] = system: Proteus morganii; assay: Activity in vitro: minimum inhibitory concentration; type: cell-based; conditions: Morganella morganii
[2] = system: Serratia marcescens; assay: as above; type: cell-based
[3] = Toxicity, LD50; conditions: in vivo
[4] = system: Pseudomonas aeruginosa; assay: Activity in vivo: survival of intraperitoneally infected mice; conditions: sc, 96 h; mice infected i.p. with Pseudomonas aeruginosa; s.c. three times, 1 h, 3 h and 5 h after infection; survival on 4th day; read-out: CD50 (dosage at which 50% of the animals survive)
Protocol: (§1) Groups of 5 mice are infected intraperitoneally with an aqueous suspension of various pathogens. The test substance in physiological sodium chloride solution is administered subcutaneously twice, i.e. 1 hour and 3 hours after the infection. The number of surviving animals is determined on the 4th day. Various dosages are administered and that dosage at which 50% of the experimental animals survive (CD50, mg/kg) is determined by interpolation.
*Administered subcutaneously three times: 1 hour, 3 hours and 5 hours

[5] = system: Proteus rettgeri; assay: Activity in vitro: minimum inhibitory concentration; type: cell-based; conditions: Providencia rettgeri
[6] = system: Proteus mirabilis; assay: as above; type: cell-based
[7] = system: Staphylococcus aureus; assay: as above; type: cell-based
[8] = system: Serratia marcescens; assay: Activity in vivo: survival of intraperitoneally infected mice; conditions: sc, 96 h, mice infected i.p. with Serratia marcescens strain 1, s.c. twice, 1 h and 3 h after infection, survival on 4th day, read-out: CD50 (dosage at which 50% of the animals survive)
Protocol: as §1

[9] = system: Haemophilus influenzae; assay: as above; conditions: sc, 96 h; mice infected i.p. with Haemophilus influenzae; s.c. twice, 1 h and 3 h after infection; survival on 4th day; read-out: CD50 (dosage at which 50% of the animals survive)
Protocol: as §1

[10] = system: Enterobacter cloacae; assay: as above; conditions: sc, 96 h; mice infected i.p. with Enterobacter cloacae; s.c. twice, 1 h and 3 h after infection; survival on 4th day; read-out: CD50 (dosage at which 50% of the animals survive)
Protocol: as §1

[11] = system: Streptococcus pyogenes; assay: as above; conditions: sc, 96 h; mice infected i.p. with Streptococcus pyogenes; s.c. twice, 1 h and 3 h after infection; survival on 4th day; read-out: CD50 (dosage at which 50% of the animals survive)
Protocol: as §1

[12] = system: Escherichia coli; assay: as above; conditions: sc, 96 h; mice infected i.p. with Escherichia coli; s.c. twice, 1 h and 3 h after infection; survival on 4th day; read-out: CD50 (dosage at which 50% of the animals survive)
Protocol: as §1

[13] = system: Pseudomonas aeruginosa; assay: Activity in vitro: minimum inhibitory concentration; type: cell-based
[14] = system: Staphylococcus epidermis; assay: as above; type: cell-based
[15] = system: Streptococcus viridans; assay: as above; type: cell-based
[16] = system: Enterobacter cloacae; assay: as above; type: cell-based
[17] = system: Escherichia coli; assay: as above; type: cell-based
[18] = system: Streptococcus faecalis; assay: as above; type: cell-based; conditions: Enterococcus faecalis
[19] = system: Proteus vulgaris; assay: as above; type: cell-based
[20] = system: Streptococcus pyogenes; assay: as above; type: cell-based
[21] = system: Klebsiella pseumoniae; assay: as above; type: cell-based
[22] = system: Citrobacter freundii; assay: as above; type: cell-based
[23] = system: Streptococcus pneumoniae; assay: as above; type: cell-based
[24] = system: Enterobacter aerogenes; assay: as above; type: cell-based; conditions: Klebsiella aerogenes
[25] = system: Proteus inconstans; assay: as above; type: cell-based; conditions: Providencia alcalifaciens
[26] = Pseudomonas aeruginosa strain 1
[27] = Pseudomonas aeruginosa strain 2
[28] = Pseudomonas aeruginosa strain 3
[29] = Streptococcus faecalis strain 1
[30] = Streptococcus faecalis strain 2
[31] = Streptococcus pyogenes strain 1, read-out: Minimum inhibitory concentration
[32] = Streptococcus pyogenes strain 2, read-out: Minimum inhibitory concentration
[33] = Enterobacter aerogenes strain 1
[34] = Enterobacter aerogenes strain 2

CO/N=C(\C(=O)N[C@@H]1C(=O)N2C(C(=O)[O-])=C(CSc3nnnn3C)CS[C@H]12)c1c[se]c(N)n1.[Na+] [Product A, (6R, 7R)-7-[2-(2-amino-4-selenazolyl)-2-[(Z)-methoxyimino]-acetamido]-3-[[(1-methyl-1H-tetrazol-5-yl)-thio]methyl]-8-oxo-5-thia-1-azabicyclo[4.2.0]oct-2-ene-2-carboxylic acid sodium salt]
MIC [1]: 0.1 mg/L
MIC ([2]; Serratia marcescens strain 1): 0.4 mg/L
MIC ([2]; Serratia marcescens strain 2): 0.8 mg/L
MIC ([2]; Serratia marcescens strain 3): 0.1 mg/L
LD50 ([3]; po): > 5000 mg/kg
LD50 ([3]; sc): > 4000 mg/kg
ED50 [4]: 39 mg/kg
MIC [5]: 0.2 mg/L
MIC ([6]; Proteus mirabilis strain 1): 0.1 mg/L
MIC ([6]; Proteus mirabilis strain 2): 0.1 mg/L
MIC ([6]; Proteus mirabilis strain 3): 0.8 mg/L
MIC ([6]; Proteus mirabilis strain 4): 0.05 mg/L
MIC ([6]; Proteus mirabilis strain 5): 0.05 mg/L
MIC ([7]; Staphylococcus aureus strain 1): 0.8 mg/L
MIC ([7]; Staphylococcus aureus strain 2): 1.6 mg/L
MIC ([7]; Staphylococcus aureus strain 3): 0.8 mg/L
MIC ([7]; Staphylococcus aureus strain 4): 0.8 mg/L
ED50 [8]: 0.13 mg/kg
ED50 [9]: 1.5 mg/kg
ED50 [10]: 8.4 mg/kg
ED50 [11]: 0.05 mg/kg
ED50 [12]: 0.006 mg/kg
MIC [13, 26]: 25 mg/L
MIC [13, 27]: 25 mg/L
MIC [13, 28]: 6.3 mg/L
MIC [14]: 0.8 mg/L
MIC [15]: 0.8 mg/L
MIC ([16]; Enterobacter cloacae strain 1): > 100 mg/L
MIC ([16]; Enterobacter cloacae strain 2): 0.8 mg/L
MIC ([16]; Enterobacter cloacae strain 3): 50 mg/L
MIC ([17]; Escherichia coli strain 1): 0.1 mg/L
MIC ([17]; Escherichia coli strain 2): 0.025 mg/L
MIC ([17]; Escherichia coli strain 3): 0.4 mg/L
MIC ([17]; Escherichia coli strain 4): 0.2 mg/L
MIC ([17]; Escherichia coli strain 5): 0.4 mg/L
MIC [18, 29]: 100 mg/L
MIC [18, 30]: > 100 mg/L
MIC [19]: 0.78 mg/L
MIC [20, 31]: 0.025 mg/L
MIC [20, 32]: ≤ 0.012 mg/L
MIC ([21]; Klebsiella pseumoniae strain 1): 0.2 mg/L
MIC ([21]; Klebsiella pseumoniae strain 2): 0.05 mg/L
MIC ([21]; Klebsiella pseumoniae strain 3): 0.1 mg/L
MIC ([22]; Citrobacter freundii strain 1): 1.6 mg/L
MIC ([22]; Citrobacter freundii strain 2): 0.05 mg/L
MIC [23]: 0.025 mg/L
MIC [24, 33]: 0.1 mg/L
MIC [24, 34]: 0.1 mg/L
MIC [25]: 0.025 mg/L

CO/N=C(\C(=O)N[C@@H]1C(=O)N2C(C(=O)O)=C(CSc3nnc(C)s3)CS[C@H]12)c1c[se]c(N)n1 [Product B, (6R, 7R)-7-[2-)2-amino-4-selenazolyl)-2-[(Z)-methoxyimino]-acetamido]-3-[[(5-methyl-1,3,4-thiadiazol-2-yl)thio]methyl]-8-oxo-5-thia-1-azabicyclo[4.2.0]oct-2-ene-2-carboxylic acid sodium salt]
MIC [1]: 0.05 mg/L
MIC ([2]; Serratia marcescens strain 1): 0.8 mg/L
MIC ([2]; Serratia marcescens strain 2): 1.6 mg/L
MIC ([2]; Serratia marcescens strain 3): 0.2 mg/L
LD50 ([3]; po): > 5000 mg/kg
LD50 ([3]; sc): > 4000 mg/kg
ED50 [4]: 134 mg/kg
MIC [5]: 0.2 mg/L
MIC ([6]; Proteus mirabilis strain 1): 0.19 mg/L
MIC ([6]; Proteus mirabilis strain 2): 0.19 mg/L
MIC ([6]; Proteus mirabilis strain 3): 0.2 mg/L
MIC ([6]; Proteus mirabilis strain 4): 0.4 mg/L
MIC ([6]; Proteus mirabilis strain 5): 0.4 mg/L
MIC ([7]; Staphylococcus aureus strain 1): 0.8 mg/L
MIC ([7]; Staphylococcus aureus strain 2): 1.6 mg/L
MIC ([7]; Staphylococcus aureus strain 3): 0.8 mg/L
MIC ([7]; Staphylococcus aureus strain 4): 1.6 mg/L
ED50 [8]: 0.52 mg/kg
ED50 [9]: 0.27 mg/kg
ED50 [10]: > 12 mg/kg
ED50 [11]: 0.05 mg/kg
ED50 [12]: 0.006 mg/kg
MIC [13, 26]: 50 mg/L
MIC [13, 27]: 25 mg/L
MIC [13, 28]: 6.3 mg/L
MIC [14]: 0.8 mg/L
MIC [15]: 0.8 mg/L
MIC ([16]; Enterobacter cloacae strain 1): > 100 mg/L
MIC ([16]; Enterobacter cloacae strain 2): 1.6 mg/L
MIC ([16]; Enterobacter cloacae strain 3): 50 mg/L
MIC ([17]; Escherichia coli strain 1): 0.2 mg/L
MIC ([17]; Escherichia coli strain 2): 0.006 mg/L
MIC ([17]; Escherichia coli strain 3): 0.8 mg/L
MIC ([17]; Escherichia coli strain 4): 0.2 mg/L
MIC ([17]; Escherichia coli strain 5): 0.4 mg/L
MIC [18, 29]: 100 mg/L
MIC [18, 30]: 100 mg/L
MIC [19]: 0.78 mg/L
MIC [20, 31]: 0.025 mg/L
MIC [20, 32]: ≤ 0.012 mg/L
MIC ([21]; Klebsiella pseumoniae strain 1): 0.4 mg/L
MIC ([21]; Klebsiella pseumoniae strain 2): 0.1 mg/L
MIC ([21]; Klebsiella pseumoniae strain 3): 0.2 mg/L
MIC ([22]; Citrobacter freundii strain 1): 1.6 mg/L
MIC ([22]; Citrobacter freundii strain 2): 0.2 mg/L
MIC [23]: 0.025 mg/L
MIC [24, 33]: 0.1 mg/L
MIC [24, 34]: 0.1 mg/L
MIC [25]: 0.025 mg/L
